Laboratory results taken from US20070243558A1, “Peptide Stabilization” (priority 2004, published 2007).
Where two headings read alike, the source gives them in different places.

Columns and labels:
[1] = Stability of the same analytes in serum samples, with and without 5% DMSO (Table 3); format: physicochemical
Excerpt: Table 3 is a test corresponding to the test of Table 2, but where the ten samples to be tested were serum samples rather than plasma samples.

[2] = room temperature
Protocol: The effect of adding DMSO was tested on pepsinogen I, pepsinogen II, Helicobacter pylori antibodies and gastrin-17. The results are indicated at day 0 and day 3.

[3] = Storage stability of analytes in serum sample without stabilizer (background statement); format: physicochemical; settings: serum sample
Excerpt: In connection with said determinations and sample handling the poor stability of gastrin-17 has proven to be a problem, due to the fact that it decomposes rapidly in the sample. […] This is in contrast to pepsinogen I and II, which retain their activity at room temperature for many days, and Helicobacter pylori antibodies, which survive for at least three days under refrigerator conditions.

[4] = for gastrin-17 concentration, Avg.: average of days 0-3
[5] = Preservation of gastrin-17 in 5% DMSO/serum or plasma solutions; format: physicochemical; settings: 5% (vol./vol.) DMSO/serum or plasma solutions, even at room temperature

- Gastrin 17 concentration ([1]; serum sample PL411s, 0% DMSO): 33.4 pmol/L
- Gastrin 17 concentration ([1]; serum sample PL411s, 5% DMSO): 32.5 pmol/L
- Gastrin 17 concentration ([1]; serum sample PL420b, 0% DMSO): 24.1 pmol/L
- Gastrin 17 concentration ([1]; serum sample PL420b, 5% DMSO): 20.1 pmol/L
- Gastrin 17 concentration ([1]; serum sample PL426s, 0% DMSO): 1.1 pmol/L
- Gastrin 17 concentration ([1]; serum sample PL426s, 5% DMSO): 1.9 pmol/L
- Gastrin 17 concentration ([1]; serum sample PL438s, 0% DMSO): 9.3 pmol/L
- Gastrin 17 concentration ([1]; serum sample PL438s, 5% DMSO): 9.8 pmol/L
- Gastrin 17 concentration ([1]; serum sample PL439s, 0% DMSO): 7.4 pmol/L
- Gastrin 17 concentration ([1]; serum sample PL439s, 5% DMSO): 8.5 pmol/L
- Gastrin 17 concentration ([1]; serum sample PL447b, 0% DMSO): 18.2 pmol/L
- Gastrin 17 concentration ([1]; serum sample PL447b, 5% DMSO): 21.7 pmol/L
- Gastrin 17 concentration ([1]; serum sample PL454s, 0% DMSO): 4.4 pmol/L
- Gastrin 17 concentration ([1]; serum sample PL454s, 5% DMSO): 5.6 pmol/L
- Gastrin 17 concentration ([1]; serum sample PL455b, 0% DMSO): 15.6 pmol/L
- Gastrin 17 concentration ([1]; serum sample PL455b, 5% DMSO): 17.6 pmol/L
- Gastrin 17 concentration ([1]; serum sample PL457b, 0% DMSO): 3.3 pmol/L
- Gastrin 17 concentration ([1]; serum sample PL457b, 5% DMSO): 6.0 pmol/L
- Gastrin 17 concentration ([1]; serum sample PL458s, 0% DMSO): 5.4 pmol/L
- Gastrin 17 concentration ([1]; serum sample PL458s, 5% DMSO): 2.2 pmol/L
- activity in samples with added 5% (vol./vol.) of DMSO ([1]; serum samples): generally retained activity
- Gastrin 17 concentration ([2]; EDTA-plasma sample PL466s, 0% DMSO, day 0): 7.6 pmol/L
- Gastrin 17 concentration ([2]; EDTA-plasma sample PL466s, 0% DMSO, day 3): 1.6 pmol/L
- Gastrin 17 concentration ([2]; EDTA-plasma sample PL466s, 5% DMSO, day 0): 7.8 pmol/L
- Gastrin 17 concentration ([2]; EDTA-plasma sample PL466s, 5% DMSO, day 3): 6.9 pmol/L
- Gastrin 17 concentration ([2]; EDTA-plasma sample PL467s, 0% DMSO, day 0): 5.3 pmol/L
- Gastrin 17 concentration ([2]; EDTA-plasma sample PL467s, 0% DMSO, day 3): 2.9 pmol/L
- Gastrin 17 concentration ([2]; EDTA-plasma sample PL467s, 5% DMSO, day 0): 4.4 pmol/L
- Gastrin 17 concentration ([2]; EDTA-plasma sample PL467s, 5% DMSO, day 3): 4.5 pmol/L
- Gastrin 17 concentration ([2]; EDTA-plasma sample PL471s, 0% DMSO, day 0): 1.3 pmol/L
- Gastrin 17 concentration ([2]; EDTA-plasma sample PL471s, 0% DMSO, day 3): 0.2 pmol/L
- Gastrin 17 concentration ([2]; EDTA-plasma sample PL471s, 5% DMSO, day 0): 1.7 pmol/L
- Gastrin 17 concentration ([2]; EDTA-plasma sample PL471s, 5% DMSO, day 3): 1.4 pmol/L
- Gastrin 17 concentration ([2]; EDTA-plasma sample PL472s, 0% DMSO, day 0): 20 pmol/L
- Gastrin 17 concentration ([2]; EDTA-plasma sample PL472s, 0% DMSO, day 3): 2.9 pmol/L
- Gastrin 17 concentration ([2]; EDTA-plasma sample PL472s, 5% DMSO, day 0): 21 pmol/L
- Gastrin 17 concentration ([2]; EDTA-plasma sample PL472s, 5% DMSO, day 3): 14.3 pmol/L
- Gastrin 17 concentration ([2]; EDTA-plasma sample PL473s, 0% DMSO, day 0): 3.7 pmol/L
- Gastrin 17 concentration ([2]; EDTA-plasma sample PL473s, 0% DMSO, day 3): 0.6 pmol/L
- Gastrin 17 concentration ([2]; EDTA-plasma sample PL473s, 5% DMSO, day 0): 3.8 pmol/L
- Gastrin 17 concentration ([2]; EDTA-plasma sample PL473s, 5% DMSO, day 3): 3.4 pmol/L
- state of the analyte in a serum sample after a day ([3]; after a day, refrigerating conditions): degraded completely
- time after which the concentration in a serum sample starts to decrease clearly ([3]; no stabilizer): three
- gastrin-17 concentration, Avg. ([4]; EDTA-plasma sample PL459S, 0% DMSO): 4.1 pmol/L
- gastrin-17 concentration ([4]; EDTA-plasma sample PL459S, 0% DMSO, day 0): 8.5 pmol/L
- gastrin-17 concentration ([4]; EDTA-plasma sample PL459S, 0% DMSO, day 1): 3.6 pmol/L
- gastrin-17 concentration ([4]; EDTA-plasma sample PL459S, 0% DMSO, day 2): 2.7 pmol/L
- gastrin-17 concentration ([4]; EDTA-plasma sample PL459S, 0% DMSO, day 3): 1.5 pmol/L
- gastrin-17 concentration, Avg. ([4]; EDTA-plasma sample PL459S, 5% DMSO): 5.6 pmol/L
- gastrin-17 concentration ([4]; EDTA-plasma sample PL459S, 5% DMSO, day 0): 6.3 pmol/L
- gastrin-17 concentration ([4]; EDTA-plasma sample PL459S, 5% DMSO, day 1): 5.4 pmol/L
- gastrin-17 concentration ([4]; EDTA-plasma sample PL459S, 5% DMSO, day 2): 5.2 pmol/L
- gastrin-17 concentration ([4]; EDTA-plasma sample PL459S, 5% DMSO, day 3): 5.4 pmol/L
- gastrin-17 concentration, Avg. ([4]; EDTA-plasma sample PL460s, 0% DMSO): 6.0 pmol/L
- gastrin-17 concentration ([4]; EDTA-plasma sample PL460s, 0% DMSO, day 0): 7.9 pmol/L
- gastrin-17 concentration ([4]; EDTA-plasma sample PL460s, 0% DMSO, day 1): 5.8 pmol/L
- gastrin-17 concentration ([4]; EDTA-plasma sample PL460s, 0% DMSO, day 2): 5.8 pmol/L
- gastrin-17 concentration ([4]; EDTA-plasma sample PL460s, 0% DMSO, day 3): 4.6 pmol/L
- gastrin-17 concentration, Avg. ([4]; EDTA-plasma sample PL460s, 5% DMSO): 6.0 pmol/L
- gastrin-17 concentration ([4]; EDTA-plasma sample PL460s, 5% DMSO, day 0): 6.3 pmol/L
- gastrin-17 concentration ([4]; EDTA-plasma sample PL460s, 5% DMSO, day 1): 5.5 pmol/L
- gastrin-17 concentration ([4]; EDTA-plasma sample PL460s, 5% DMSO, day 2): 6.1 pmol/L
- gastrin-17 concentration ([4]; EDTA-plasma sample PL460s, 5% DMSO, day 3): 6.0 pmol/L
- gastrin-17 concentration, Avg. ([4]; EDTA-plasma sample PL461s, 0% DMSO): 12.4 pmol/L
- gastrin-17 concentration ([4]; EDTA-plasma sample PL461s, 0% DMSO, day 0): 26.0 pmol/L
- gastrin-17 concentration ([4]; EDTA-plasma sample PL461s, 0% DMSO, day 1): 8.7 pmol/L
- gastrin-17 concentration ([4]; EDTA-plasma sample PL461s, 0% DMSO, day 2): 8.5 pmol/L
- gastrin-17 concentration ([4]; EDTA-plasma sample PL461s, 0% DMSO, day 3): 6.1 pmol/L
- gastrin-17 concentration, Avg. ([4]; EDTA-plasma sample PL461s, 5% DMSO): 21.8 pmol/L
- gastrin-17 concentration ([4]; EDTA-plasma sample PL461s, 5% DMSO, day 0): 24.3 pmol/L
- gastrin-17 concentration ([4]; EDTA-plasma sample PL461s, 5% DMSO, day 1): 21.6 pmol/L
- gastrin-17 concentration ([4]; EDTA-plasma sample PL461s, 5% DMSO, day 2): 19.9 pmol/L
- gastrin-17 concentration ([4]; EDTA-plasma sample PL461s, 5% DMSO, day 3): 21.2 pmol/L
- time for which gastrin-17 was preserved [5]: at least three
Substance: gastrin-17 [Gastrin 17]
